# Values quoted from earlier work, collected in patent US20220242810A1, “CRYSTALLINE CANNABIGEROL” (Purisys LLC, priority 2019, published 2022).
# Experiments:
# colon cancer cells = details: one study
# [1] = in vivo
# [2] = test system: uptake of γ-aminobutyric acid (GABA)
# CBI receptor = CBI receptor (Homo sapiens, UniProt P21554)
# [3] = rats
# CB2 receptor = CB2 receptor (Homo sapiens, UniProt P34972); details: unknown whether agonist or antagonist
# 5-HT1A receptor = molecular target: T1, 5-HT1A receptor (Homo sapiens, UniProt P08908)
# T1 sequence (P08908 1-422): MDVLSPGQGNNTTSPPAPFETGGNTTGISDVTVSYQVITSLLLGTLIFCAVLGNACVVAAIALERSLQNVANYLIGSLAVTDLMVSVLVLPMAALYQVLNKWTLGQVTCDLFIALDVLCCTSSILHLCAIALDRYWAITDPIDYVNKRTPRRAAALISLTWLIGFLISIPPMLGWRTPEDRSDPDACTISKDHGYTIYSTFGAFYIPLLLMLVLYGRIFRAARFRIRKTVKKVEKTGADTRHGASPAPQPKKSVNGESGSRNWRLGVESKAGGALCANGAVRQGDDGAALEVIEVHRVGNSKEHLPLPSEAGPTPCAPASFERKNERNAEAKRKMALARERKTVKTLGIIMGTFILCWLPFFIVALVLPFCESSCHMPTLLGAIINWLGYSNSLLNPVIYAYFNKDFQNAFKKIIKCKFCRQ
# Chain of CB2 receptor (P34972 whole entry): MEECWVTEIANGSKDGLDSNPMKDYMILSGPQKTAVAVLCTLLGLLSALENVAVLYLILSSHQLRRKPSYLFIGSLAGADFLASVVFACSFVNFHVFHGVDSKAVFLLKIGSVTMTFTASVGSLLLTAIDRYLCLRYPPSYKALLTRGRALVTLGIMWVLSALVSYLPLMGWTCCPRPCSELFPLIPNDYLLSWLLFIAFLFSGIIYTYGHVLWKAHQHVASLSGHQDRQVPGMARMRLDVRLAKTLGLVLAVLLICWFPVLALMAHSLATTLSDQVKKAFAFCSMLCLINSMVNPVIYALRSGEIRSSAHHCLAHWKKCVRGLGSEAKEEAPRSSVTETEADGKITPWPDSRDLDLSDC
# Chain of CBI receptor (P21554 whole entry): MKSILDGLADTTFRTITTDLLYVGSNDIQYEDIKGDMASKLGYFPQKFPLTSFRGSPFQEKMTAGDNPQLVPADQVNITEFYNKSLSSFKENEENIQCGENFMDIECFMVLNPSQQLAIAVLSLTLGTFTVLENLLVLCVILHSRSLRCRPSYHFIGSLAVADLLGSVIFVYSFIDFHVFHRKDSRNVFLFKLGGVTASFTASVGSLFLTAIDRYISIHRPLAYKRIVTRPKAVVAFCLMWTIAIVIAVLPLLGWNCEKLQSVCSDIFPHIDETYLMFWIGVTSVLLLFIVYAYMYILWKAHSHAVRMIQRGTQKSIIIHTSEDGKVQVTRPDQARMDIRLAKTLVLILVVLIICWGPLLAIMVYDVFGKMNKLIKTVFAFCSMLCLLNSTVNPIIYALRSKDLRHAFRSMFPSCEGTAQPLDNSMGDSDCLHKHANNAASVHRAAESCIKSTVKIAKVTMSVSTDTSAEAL
structure (smiles),measurement,setting,value
"CCCCCc1cc(O)c(C/C=C(\C)CCC=C(C)C)c(O)c1 [CBG, 2-[(2E)-3,7-dimethylocta-2,6-dienyl]-5-pentyl-benzene-1,3-diol]",affinity as α2-adrenergic receptor agonist,α2-adrenergic receptor,high affinity
same,growth of colon cancer cells,colon cancer cells,inhibits the growth
same,effect on intraocular pressure,[1],relieve intraocular pressure
same,uptake of γ-aminobutyric acid (GABA) in the brain,[2],inhibits the uptake
same,affinity as CBI receptor antagonist,CBI receptor,low affinity
same,anti-nausea and anti-emetic effect,[3],anti-nausea and anti-emetic effect
same,binding with the CB2 receptor,CB2 receptor,known to bind
same,affinity as 5-HT1A receptor antagonist,5-HT1A receptor,moderate affinity
